PubChem BioAssay (NCI)
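Five concentrations, 48 hours, 96-well plates. GI50 = concentration required for 50% inhibition of growth. TGI is the concentration that stops growth completely.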

Experiments:
Assay in all cases: inhibition of tumour cell growth, NCI panel, 48 h
786-0 renal = tested on: 786-0 renal
A498 renal = tested on: A498 renal
COLO 205 colon = tested on: COLO 205 colon
OVCAR-4 ovarian = tested on: OVCAR-4 ovarian
OVCAR-8 ovarian = tested on: OVCAR-8 ovarian
SW-620 colon = tested on: SW-620 colon
TK-10 renal = tested on: TK-10 renal
SR leukemia = tested on: SR leukemia

Compound | GI50 (786-0 renal) [µM] | TGI (786-0 renal) [µM] | GI50 (A498 renal) [µM] | TGI (A498 renal) [µM] | GI50 (COLO 205 colon) [µM] | TGI (COLO 205 colon) [µM] | GI50 (OVCAR-4 ovarian) [µM] | TGI (OVCAR-4 ovarian) [µM] | GI50 (OVCAR-8 ovarian) [µM] | TGI (OVCAR-8 ovarian) [µM] | GI50 (SW-620 colon) [µM] | TGI (SW-620 colon) [µM] | GI50 (TK-10 renal) [µM] | TGI (TK-10 renal) [µM] | TGI (SR leukemia) [µM] | GI50 (SR leukemia) [µM]
CCOC(=O)N1CCN(/[N+]([O-])=N/Oc2ccc([N+](=O)[O-])cc2[N+](=O)[O-])CC1 | 0.322 | 1.64 | 17.5 | 35.6 | 0.349 | 14.4 | 0.438 | 1.78 | 3.49 | 12.9 | 0.434 | 35.7 | 0.406 | 5.57 |  | 
OC(Cc1ccncc1)C(Cl)(Cl)Cl (stereo not drawn) | > 100 | > 100 |  |  | > 100 | > 100 | > 100 | > 100 | > 100 | > 100 | > 100 | > 100 | > 100 | > 100 |  | 
COc1ccc2[nH]cc(-c3ccc(-c4c[nH]c5ccc(OC)cc45)s3)c2c1 | 2.36 | 7.64 | 3.58 | 14.3 | 4.68 | 11.5 | 6.82 | 23.7 | 5.86 | > 49.9 | 2.94 | 8.15 | 6.29 | 21.3 |  | 
COC(=O)c1ccc(-c2nc3cc(Cl)c(Cl)cc3nc2C#N)cc1 | > 100 | > 100 | > 100 | > 100 | > 100 | > 100 | > 100 | > 100 | > 100 | > 100 | > 100 | > 100 | > 100 | > 100 |  | 
COc1ccc(-c2cc3c(c4cc(OC)ccc24)C(=O)OC3=O)cc1 |  | > 100 |  |  |  | > 100 |  | > 100 |  | > 100 |  | > 100 |  | > 100 | > 100 | 
C[C@]12C[C@H](CCCCCCNCCOC(=O)NCCCc3ccc(N(CCCl)CCCl)cc3)C3=C4CCC(=O)C=C4CCC3C1CC[C@@H]2O (stereo partly drawn) | 0.841 | 3.89 | 1.93 | 3.56 | 1.45 | 3.9 |  |  |  |  | 1.2 | 4.07 | 1.85 | 4.49 |  | 
CCOC(=O)/C(C=Nc1ccc(-c2nc3ccccc3[nH]2)cc1)=C(/C)O | 11 | 23.5 |  |  | 10.7 | 33.4 |  |  | 8.78 | 17.7 | 11.7 | 22.7 | 25.4 | > 50 |  | 
CN1CCC2(CC1)ONC1=NCCN12 | 15.4 | 53.8 | 41.4 | > 100 | 31.1 | > 100 | > 100 | > 100 |  | 12.9 | 51.8 | > 100 |  |  |  | 
O=C(c1ccccc1)c1ccccc1-c1ccccc1 | 10.6 | 90.7 | 2.08 | 15.6 | 2.87 | 8.37 | 18.7 | > 100 | 4.77 | 52.4 | 1.54 | > 100 | 6.28 | > 100 |  | 
C/C=C(\C)C(=O)NC1=CC[C@@]2(C)C(=CCC3C2CC[C@@]2(C)C3CC[C@@H]2C(C)N(C)C)C1=O (stereo partly drawn) | 2.54 | 7.45 | 2.03 | 18.2 | 1.72 | 3.45 | 4.58 | > 50.2 | 10.1 | > 77.9 | 2.02 | 4.91 | 12.3 | 32.4 |  | 
CC(=O)NC1C(OC[C@@H](CC(=O)N[C@@H](CC(=O)O)CC(=O)N[C@H](CC(=O)N[C@@H](CCCN)CC(=O)N[C@@H](CCCN)CC(=O)N[C@H](CC(N)=O)C(C)C)C(C)C)NC(=O)C[C@@H](N)C(C)C)OC(CO)C(O)C1O (stereo partly drawn) | > 100 | > 100 | > 100 | > 100 | > 100 | > 100 | > 100 | > 100 | > 100 | > 100 | > 100 | > 100 | > 100 | > 100 |  | 
NS(=O)(=O)c1ccc(-n2nc(-c3ccc(Cl)cc3)cc2-c2cc(O)ccc2O)cc1 | 5.18 | 16.7 |  |  |  |  |  |  | 13.3 | 58.6 | 23.4 | 89.4 | 10.9 | 26.1 | > 100 | 3.85
CC1(C)C2CCC13C(=O)C1OC3(C2)C2C(=O)c3cc4ccccc4cc3C(=O)C12 (stereo not drawn) | 6 | 36.6 |  |  | 14.7 | > 100 |  |  | 33.8 | > 100 |  |  | 12.9 | 44.5 | 7.04 | 1.83
C=C1C(=O)O[C@H]2[C@H]1CC/C(COC(=O)CSCSCC(=O)OC/C1=C/CC[C@@]3(C)O[C@H]3[C@H]3OC(=O)C(=C)[C@@H]3CC1)=C\CC[C@@]1(C)O[C@@H]21 | 1.41 | 2.89 | 3.83 | 14.8 | 1.34 | 3.06 | 2.68 | 8.74 | 1.93 | 4.96 | 1.41 | 3.26 | 1.92 | 3.67 |  | 
